Source: patent publication US10582709B2, “Butyrolactones as herbicides” (FMC Corporation, priority 2015, dated 2020)

How the values were obtained:
Assay type in all cases: in vivo
[1] = system: pigweed (Amaranthus retroflexus); experiment: Test A postemergence, pigweed; details: visual rating after approx. 10 d, 0 to 100 scale, 0 no effect, 100 complete control
From the text: (§1) Seeds of plant species selected from barnyardgrass (Echinochloa crus-galli), crabgrass (large crabgrass, Digitaria sanguinalis), kochia (Kochia scoparia), ragweed (common ragweed, Ambrosia elatior), morningglory (Ipomoea spp.), velvetleaf (Abutilon theophrasti), ryegrass, Italian (Italian ryegrass, Lolium multiflorum), foxtail, giant (giant foxtail, Setaria faberii), wheat (Triticum aestivum), corn (Zea mays), and pigweed (Amaranthus retroflexus), were planted into a blend of loam soil and sand and treated preemergence with a directed soil spray using test chemicals formulated in a non-phytotoxic solvent mixture which included a surfactant. At the same time, plants selected from these crop and weed species and also blackgrass (Alopecurus myosuroides), and galium (catchweed bedstraw, Galium aparine), were planted in pots containing the same blend of loam soil and sand and treated with postemergence applications of test chemicals formulated in the same manner. Plants ranged in height from 2 to 10 cm and were in the one- to two-leaf stage for the postemergence treatment. Treated plants and untreated controls were maintained in a greenhouse for approximately 10 d, after which time all treated plants were compared to untreated controls and visually evaluated for injury. Plant response ratings, summarized in Table A, are based on a 0 to 100 scale where 0 is no effect and 100 is complete control. A dash (-) response means no test result.

[2] = system: ducksalad (Heteranthera limosa); experiment: Test B flooded paddy test, ducksalad; details: applied to paddy water at 2-leaf stage, 13 to 15 d, scale 0 no effect to 100 complete control
Procedure: (§2) Plant species in the flooded paddy test selected from rice (Oryza sativa), sedge, umbrella (small-flower umbrella sedge, Cyperus difformis), ducksalad (Heteranthera limosa), and barnyardgrass (Echinochloa crus-galli) were grown to the 2-leaf stage for testing. At time of treatment, test pots were flooded to 3 cm above the soil surface, treated by application of test compounds directly to the paddy water, and then maintained at that water depth for the duration of the test. Treated plants and controls were maintained in a greenhouse for 13 to 15 d, after which time all species were compared to controls and visually evaluated. Plant response ratings, summarized in Table B, are based on a scale of 0 to 100 where 0 is no effect and 100 is complete control. A dash (-) response means no test result.

[3] = system: wheat (Triticum aestivum); experiment: Test A postemergence, wheat; details: visual rating after approx. 10 d, 0 to 100 scale, 0 no effect, 100 complete control
From the text: as §1

[4] = system: foxtail, giant (giant foxtail, Setaria faberii); experiment: Test A postemergence, giant foxtail; details: visual rating after approx. 10 d, 0 to 100 scale, 0 no effect, 100 complete control
From the text: as §1

[5] = system: blackgrass (Alopecurus myosuroides); experiment: Test A postemergence, blackgrass; details: visual rating after approx. 10 d, 0 to 100 scale, 0 no effect, 100 complete control
From the text: as §1

[6] = system: corn (Zea mays); experiment: Test A postemergence, corn; details: visual rating after approx. 10 d, 0 to 100 scale, 0 no effect, 100 complete control
From the text: as §1

[7] = system: ryegrass, Italian (Italian ryegrass, Lolium multiflorum); experiment: Test A postemergence, Italian ryegrass; details: visual rating after approx. 10 d, 0 to 100 scale, 0 no effect, 100 complete control
From the text: as §1

[8] = system: rice (Oryza sativa); experiment: Test B flooded paddy test, rice; details: applied to paddy water at 2-leaf stage, 13 to 15 d, scale 0 no effect to 100 complete control
Procedure: as §2

[9] = system: barnyardgrass (Echinochloa crus-galli); experiment: Test B flooded paddy test, barnyardgrass; details: applied to paddy water at 2-leaf stage, 13 to 15 d, scale 0 no effect to 100 complete control
Procedure: as §2

[10] = system: ragweed (common ragweed, Ambrosia elatior); experiment: Test A postemergence, ragweed; details: visual rating after approx. 10 d, 0 to 100 scale, 0 no effect, 100 complete control
From the text: as §1

[11] = system: sedge, umbrella (small-flower umbrella sedge, Cyperus difformis); experiment: Test B flooded paddy test, umbrella sedge; details: applied to paddy water at 2-leaf stage, 13 to 15 d, scale 0 no effect to 100 complete control
Procedure: as §2

[12] = system: barnyardgrass (Echinochloa crus-galli); experiment: Test A postemergence, barnyardgrass; details: visual rating after approx. 10 d, 0 to 100 scale, 0 no effect, 100 complete control
From the text: as §1

[13] = system: kochia (Kochia scoparia); experiment: Test A postemergence, kochia; details: visual rating after approx. 10 d, 0 to 100 scale, 0 no effect, 100 complete control
From the text: as §1

[14] = system: galium (catchweed bedstraw, Galium aparine); experiment: Test A postemergence, galium; details: visual rating after approx. 10 d, 0 to 100 scale, 0 no effect, 100 complete control
From the text: as §1

[15] = system: ryegrass, Italian (Italian ryegrass, Lolium multiflorum); experiment: Test A preemergence, Italian ryegrass; details: visual rating after approx. 10 d, 0 to 100 scale, 0 no effect, 100 complete control
From the text: as §1

[16] = system: pigweed (Amaranthus retroflexus); experiment: Test A preemergence, pigweed; details: visual rating after approx. 10 d, 0 to 100 scale, 0 no effect, 100 complete control
From the text: as §1

[17] = system: ragweed (common ragweed, Ambrosia elatior); experiment: Test A preemergence, ragweed; details: visual rating after approx. 10 d, 0 to 100 scale, 0 no effect, 100 complete control
From the text: as §1

[18] = system: barnyardgrass (Echinochloa crus-galli); experiment: Test A preemergence, barnyardgrass; details: visual rating after approx. 10 d, 0 to 100 scale, 0 no effect, 100 complete control
From the text: as §1

[19] = system: kochia (Kochia scoparia); experiment: Test A preemergence, kochia; details: visual rating after approx. 10 d, 0 to 100 scale, 0 no effect, 100 complete control
From the text: as §1

[20] = system: foxtail, giant (giant foxtail, Setaria faberii); experiment: Test A preemergence, giant foxtail; details: visual rating after approx. 10 d, 0 to 100 scale, 0 no effect, 100 complete control
From the text: as §1

Structure (SMILES)	Plant response rating, Pigweed ([1]; 125 g ai/ha)	Plant response rating, Pigweed ([1]; 500 g ai/ha)	Plant response rating, Flood, Ducksalad ([2]; 250 g ai/ha)	Plant response rating, Wheat ([3]; 125 g ai/ha)	Plant response rating, Wheat ([3]; 500 g ai/ha)	Plant response rating, Foxtail, Giant ([4]; 125 g ai/ha)	Plant response rating, Foxtail, Giant ([4]; 500 g ai/ha)	Plant response rating, Blackgrass ([5]; 125 g ai/ha)	Plant response rating, Blackgrass ([5]; 500 g ai/ha)	Plant response rating, Corn ([6]; 125 g ai/ha)	Plant response rating, Corn ([6]; 500 g ai/ha)	Plant response rating, Ryegrass, Italian ([7]; 125 g ai/ha)	Plant response rating, Ryegrass, Italian ([7]; 500 g ai/ha)	Plant response rating, Flood, Rice ([8]; 250 g ai/ha)	Plant response rating, Flood, Barnyardgrass ([9]; 250 g ai/ha)	Plant response rating, Ragweed ([10]; 125 g ai/ha)	Plant response rating, Flood, Sedge, Umbrella ([11]; 250 g ai/ha)	Plant response rating, Barnyardgrass ([12]; 125 g ai/ha)	Plant response rating, Kochia ([13]; 125 g ai/ha)	Plant response rating, Galium ([14]; 125 g ai/ha)	further results
CC1(C(=O)Nc2ccccc2C(F)(F)F)C(=O)OCC1c1ccc(F)cc1 (racemic) [Compound 21]	0	0	90	0	0	0	0	0	30	0	0	0	0	30	90	0	0	0	0	0	Plant response rating, Ragweed ([10]; 500 g ai/ha): 40; Plant response rating, Barnyardgrass ([12]; 500 g ai/ha): 30; Plant response rating, Kochia ([13]; 500 g ai/ha): 0; Plant response rating, Galium ([14]; 500 g ai/ha): 30
O=C(Nc1cccc(F)c1F)C1C(=O)OCC1c1ccc(C(F)(F)F)cc1 (racemic) [Compound 7]	0	0	30	0	0	20	50	0	0	0	0	0	0	0	0	0	0	0	0	0	Plant response rating, Flood, Ducksalad ([2]; 1000 g ai/ha): 40; Plant response rating, Ryegrass, Italian ([15]; 125 g ai/ha): 0; Plant response rating, Ryegrass, Italian ([15]; 500 g ai/ha): 0; Plant response rating, Pigweed ([16]; 125 g ai/ha): 0; Plant response rating, Pigweed ([16]; 500 g ai/ha): 0; Plant response rating, Flood, Rice ([8]; 1000 g ai/ha): 0; Plant response rating, Flood, Barnyardgrass ([9]; 1000 g ai/ha): 0; Plant response rating, Ragweed ([10]; 500 g ai/ha): 0; Plant response rating, Ragweed ([17]; 125 g ai/ha): 0; Plant response rating, Ragweed ([17]; 500 g ai/ha): 0; Plant response rating, Barnyardgrass ([18]; 125 g ai/ha): 0; Plant response rating, Barnyardgrass ([18]; 500 g ai/ha): 30; Plant response rating, Kochia ([19]; 125 g ai/ha): 0; Plant response rating, Kochia ([19]; 500 g ai/ha): 0; Plant response rating, Foxtail, Giant ([20]; 125 g ai/ha): 30; Plant response rating, Foxtail, Giant ([20]; 500 g ai/ha): 80; Plant response rating, Flood, Sedge, Umbrella ([11]; 1000 g ai/ha): 0; Plant response rating, Barnyardgrass ([12]; 500 g ai/ha): 20; Plant response rating, Kochia ([13]; 500 g ai/ha): 0; Plant response rating, Galium ([14]; 500 g ai/ha): 0
CC1(C(=O)Nc2cccc(F)c2F)C(=O)OCC1c1ccc(F)cc1 (racemic) [Compound 22]	0		0	0		60		0		0		20		20	0	0	0	90	0	20	Plant response rating, Pigweed ([1]; 31 g ai/ha): 0; Plant response rating, Wheat ([3]; 31 g ai/ha): 0; Plant response rating, Foxtail, Giant ([4]; 31 g ai/ha): 30; Plant response rating, Blackgrass ([5]; 31 g ai/ha): 0; Plant response rating, Corn ([6]; 31 g ai/ha): 0; Plant response rating, Ryegrass, Italian ([7]; 31 g ai/ha): 20; Plant response rating, Ragweed ([10]; 31 g ai/ha): 0; Plant response rating, Barnyardgrass ([12]; 31 g ai/ha): 40; Plant response rating, Kochia ([13]; 31 g ai/ha): 0; Plant response rating, Galium ([14]; 31 g ai/ha): 0
